Patent publication US6407125B1, “Pharmacological agent and method of treatment” (Novactyl, Inc., priority 1995, dated 2002)

Legend:
LoVo cells [1] = assay: Viability of LoVo cells (trypan blue exclusion); type: cell-based, human; details: 500 μM fusaric acid
Protocol: As in the case of WI-38, LoVo cell viability after fusaric acid treatment was investigated in logarithmically growing and confluent cells, as shown in Tables 2 and 3. In logarithmically growing LoVo cells, approximately 38% of the attached cells were viable after 30 hours of treatment with fusaric acid. When the cells were treated for 78 hours, only 4.5% of the cell population survived the pronounced cytotoxic actions of fusaric acid. […] Thus, LoVo cells are much more sensitive to the cytotoxic actions of fusaric acid in both growing and confluent population of cells in comparison to normal WI-38 cells.

[2] = test system: human breast adenocarcinoma MDA-468 cell; assay: Growth of MDA-468 cells (cell number, DNA synthesis); type: cell-based; details: MDA-468, 500 μM fusaric acid
Protocol: After 12-24 hours of treatment with 500 μM fusaric acid, there was no further increase in cell number. […] These floating cells were not viable. Within 30 hours of treatment there was a 65% decrease in cell number. […] After 96 hours, less than 10% of the original population remained attached to the dish and no change in cell number was noted after one additional week.

KB cells [3] = assay: Growth of KB cells; type: cell-based, human; details: 48 hours in 500 μM
WI-38 cells [4] = assay: Viability of WI-38 cells (trypan blue exclusion); type: cell-based; details: 500 μM fusaric acid
Protocol: To examine WI-38 cell viability in greater detail, the effects of fusaric acid were studied in logarithmically growing and contact inhibited confluent cells (Tables 2 and 3). In logarithmically growing WI-38 cells approximately 76% of the cells were viable after 30 hours of treatment with fusaric acid. When the cells were treated for 78 hours, only 26% of the cell population survived the pronounced cytotoxic actions of fusaric acid.

liver adenocarcinoma = assay: Viability of other human carcinoma cell types; type: cell-based; details: 48 hours of treatment
Protocol: (§1) As in previous examples, the following human cell lines were inhibited by similar concentrations of fusaric acid: Prostatic adenocarcinoma, skin carcinoma, colon carcinoma, liver adenocarcinoma and lung adenocarcinoma. For all these cell types, cell viability decreased by approximately 60% after 48 hours of treatment with fusaric acid.

lung adenocarcinoma = assay: Viability of other human carcinoma cell types; type: cell-based; details: 48 hours of treatment
Protocol: as §1

colon carcinoma = assay: Viability of other human carcinoma cell types; type: cell-based; details: 48 hours of treatment
Protocol: as §1

Prostatic adenocarcinoma = assay: Viability of other human carcinoma cell types; type: cell-based; details: 48 hours of treatment
Protocol: as §1

skin carcinoma = assay: Viability of other human carcinoma cell types; type: cell-based; details: 48 hours of treatment
Protocol: as §1

KB cells [5] = assay: Viability of KB cells (trypan blue exclusion); type: cell-based, human; details: 500 μM fusaric acid
Protocol: To examine KB cell viability in greater detail, the effects of fusaric acid were studied in logarithmically growing and confluent cells. In logarithmically growing KB cells 70% of the cells were viable after 48 hours in 500 μtM fusaric acid. […] Thus, in contrast to LoVo cells, a significant proportion of the population of growing (70%) cells and virtually all (95%) of confluent KB cells resisted the pronounced cytotoxic action of fusaric acid (See Tables 3 and 4, above).

WI-38 cells [6] = assay: Growth of WI-38 cells (total cell protein, cell number); type: cell-based; details: for Monolayer Protein: WI-38, fusaric acid 0.5 mM
Protocol: (§2) Cells were plated at 1.5×10^5 cells/60-mm dish; 48 hours later, the medium was removed, and new media with or without 3 mM picolinic acid was added. Total cell protein was determined at the indicated times; each point is the average of triplicate measurements from 2 cultures.
(§3) In initial experiments to examine the effects of fusaric acid on cell growth and viability, WI-38 and LoVo cells were incubated for 24 to 72 hours in medium with or without various doses of fusaric acid (0.1-1 mM). The growth of both WI-38 and LoVo cells was inhibited by 500 μM fusaric acid in a time and dose dependent manner, as shown below in Table 2.

LoVo cells [7] = assay: Growth of LoVo cells (total cell protein, cell number, DNA synthesis); type: cell-based, human; details: for Monolayer Protein: fusaric acid 0.5 mM
Protocol: as §2, §3
After 30 hours of treatment with 500 μM fusaric acid, there was a prominent decrease in cell number. DNA synthesis was completely (100%) inhibited by 24 hours. When treated with 500 μM fusaric acid, the majority of the LoVo cells acquired a rounded morphology by 48 hours.
However, after 100 hours, an increase in cell number was noted after 25 additional hours.

MDA-468 cells = type: cell-based, human
Protocol: As in the case of WI-38, MDA-468 cell viability after fusaric acid treatment was investigated in logarithmically growing and confluent cells. In logarithmically growing MDA-468 cells, less than 20% of the attached cells were viable after 30 hours of treatment with fusaric acid. When the cells were treated for 48 hours, only 0.1% of the cell population survived the pronounced cytotoxic actions of fusaric acid. […] Thus, MDA-468 cells are extremely sensitive to the cytotoxic actions of fusaric acid in both growing and confluent population of cells in comparison to normal WI-38 lines studied.

CCCCc1ccc(C(=O)O)nc1 [fusaric acid]
% Survival (LoVo cells [1]; confluent cells, 48 h): 40%
% Survival (LoVo cells [1]; logarithmic growth, 78 h): 4.5%
inhibition at 500 µM ([2]; Homo sapiens, by 24 hr): 100%
decrease in cell number ([2]; within 30 hours): 65%
time to resumed growth after removal of fusaric acid (KB cells [3]): 27 h
% Survival (WI-38 cells [4]; WI-38, confluent cells, 48 h): 100%
% Survival (WI-38 cells [4]; WI-38, logarithmic growth, 78 h): 26%
decrease in cell viability (liver adenocarcinoma): approximately 60%
decrease in cell viability (lung adenocarcinoma): approximately 60%
decrease in cell viability (colon carcinoma): approximately 60%
decrease in cell viability (Prostatic adenocarcinoma): approximately 60%
decrease in cell viability (skin carcinoma): approximately 60%
viability at 500 µM (KB cells [5]; Homo sapiens, logarithmically growing, 48 hours, read-out: viable cells): 70%
% Survival (KB cells [5]; confluent cells, 48 h): 95%
Monolayer Protein (WI-38 cells [6]; 24 h): 195 μg/dish
Monolayer Protein (WI-38 cells [6]; 48 h): 275 μg/dish
Monolayer Protein (WI-38 cells [6]; 72 h): 345 μg/dish
time to resumed growth after removal of fusaric acid (WI-38 cells [6]; WI-38, 30 hours in 500 μM): 125 h
decrease in cell number after removal of fusaric acid (WI-38 cells [6]; WI-38, 30 hours in 500 μM, then 4 days in normal media): 30%
cells surviving after removal of fusaric acid (WI-38 cells [6]; WI-38, remaining cells after 30 hours in 500 μM): > 95%
cytotoxicity in LoVo cells (LoVo cells [7]; 1 mM fusaric acid, by 24 hours): extensive cytotoxicity
inhibition at 500 µM (LoVo cells [7]; Homo sapiens, LoVo, 24 h, read-out: inhibition of DNA synthesis): 100%
decrease in cell number (LoVo cells [7]; LoVo, 500 μM fusaric acid, within 30 hours of treatment): 60%
Monolayer Protein (LoVo cells [7]; LoVo, 24 h): 135 μg/dish
Monolayer Protein (LoVo cells [7]; LoVo, 48 h): 90 μg/dish
Monolayer Protein (LoVo cells [7]; LoVo, 72 h): 101 μg/dish
cells surviving (MDA-468 cells; MDA-468, confluent, 500 μM fusaric acid, 48 hours): 10%
viable attached cells (MDA-468 cells; MDA-468, logarithmically growing, fusaric acid, 30 hours): less than 20%
cell population surviving (MDA-468 cells; MDA-468, logarithmically growing, fusaric acid, 48 hours): 0.1%
